{
  "source": "paper PMC11065314",
  "about": "“Identification of compounds that cause axonal dieback without cytotoxicity in dorsal root ganglia explants and intervertebral disc cells with potential to treat pain via denervation” (PLOS ONE, 2024)",
  "key": {"Human NP cells": {"system": "Human NP cells", "assay": "NP cell metabolic activity (AlamarBlue reduction);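 for AB reduction per cell (%): percent AlamarBlue reduction per manufacturer divided by estimated total cells per well from LIVE/DEAD counts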", "type": "cell-based", "description": "Nucleus pulposus (NP) cells are native matrix-producing cells at the core of intervertebral discs. To repurpose axonal dieback compounds to denervate aberrant nerve fibers in discs related to chronic LBP, the cytocompatibility of these compounds with NP cells must be evaluated. Human NP cells (Sciencell, 4800) from donor 1 (Lot #5954) and donor 2 (Lot# 21579) were cultured according to previously established protocol in our lab adapted from manufacturer’s instructions. Briefly, passage three cells from both donors were expanded in Poly-L-lysine (PLL) (Sciencell, 413) coated T75 flasks. Cells were then lifted and reseeded at 5,000 cells/cm^2 onto two PLL-coated 48-well plates (Greiner Bio-One, 677180) and allowed to attach overnight before treating with Pyr or Vcr. One plate was used for LIVE/DEAD staining and the other plate was used for AlamarBlue assay as described below. Complete NP cell media (Sciencell, 4801) containing basal media supplemented with 1% penicillin-streptomycin, 1% growth supplement and 2% FBS were used for maintaining cells in culture. To mimic the hypoxic disc environment, NP cells were cultured in a hypoxia chamber (Stem Cell Technologies, 27310) with 5% CO2, 3.5% O2, 91.5% N2 (Airgas) during the entire culture and treatment incubation period.\nPyr stock solution was diluted in complete NP media to achieve final concentrations of 500 μM, 1 mM and 2 mM Pyr. 16.9 μg/mL and 169 μg/mL Vcr stock solutions were prepared in 1X PBS then diluted in complete NP media to achieve final concentrations of 10, 25, 50, 100 nM and 200, 500 nM, respectively. Cells were incubated with 250 μL of final treatment solutions in duplicate wells per donor for three days. Cells in negative control group were incubated with 250 μL of complete NP media with 0.55% v/v 1X PBS as solvent control. On day 3 post-treatment, brightfield images at 4X magnification were taken using a BioTek Cytation1 Plate Imager (Agilent) to verify cell proliferation and observe cell morphology. Three experimental replicates were performed for each cell donor.\nOn day 3 of incubation with drugs, 25 μL (10% v/v of media volume) of AlamarBlue HS cell viability reagent (Thermo Fisher Scientific, A50100) were added into each well. Cells were incubated with the AlamarBlue reagent for 2 hours at 37°C under hypoxia then 60 μL aliquots of cell media were removed in duplicates into a 96-well plate. The absorbance at 570 and 600 nm were read using a microplate reader (Agilent) and calculations for AlamarBlue reduction were calculated according to the manufacturer’s protocol. To account for different cell confluency between donors and groups, AlamarBlue reduction was normalized to estimated total number of cells per well obtained from LIVE/DEAD staining. Cellular metabolic activity in treated groups was reported as a ratio of normalized AlamarBlue reduction to PBS control group."}, "rat DRG explants": {"system": "rat DRG explants", "assay": "DRG cytotoxicity assessment using LDH assay", "type": "cell-based", "settings": "for Cytotoxicity (%): female rat DRG explant, single well", "description": "(§1) 500 nM Imy and 10 nM Vcr were excluded from female rat DRG experiments while 500 nM Vcr and 1 mM Pyr were excluded from male rat DRG experiments due to insufficient DRG replicates with axon outgrowth. DRG media was removed from wells and transferred into a 96-well plate for pre-treat LDH cytotoxicity assay (see Methods below). 300 μL of media treatment solutions or solvent control solutions were added to wells. DRGs were incubated with treatment solutions for three days, and brightfield images at 4X magnification were taken using BioTek Cytation1 Plate Imager (Agilent) before treatment (day -1) and on days 1, 2 and 3 after treatment. DRGs from adult male and female rats were tested to determine if sex can affect axonal dieback. In total, 12 to 15 DRG replicates per group by sex harvested from n = 3 male and n = 3 female rats were tested.\n(§2) Lactate dehydrogenase (LDH) is a cytosolic enzyme present in all cells. Dissociated rat DRG neurons release LDH during tunicamycin-induced apoptosis. […] An ideal axonal dieback compound should cause axonal degeneration without neurotoxicity. was assessed on day 3 post-treat and normalized to pre-treat levels to account for variability in DRG size and growth and calculated as a percentage of cytotoxicity to lysed DRGs (positive control). 50 μL of pre-treatment and post-treatment media were aliquoted in duplicates into a 96-well plate. LDH activity in the media post-treat was assessed using the CyQUANT^TM LDH Cytotoxicity Assay Kit (Thermo Fisher Scientific, C20301) according to the manufacturer’s instructions. Briefly, 50 μL of Substrate Mix was added to each well and then incubated at room temperature for 30 minutes protected from light. 50 μL of Stop solution was added to each well and the absorbance at 490 nm and 680 nm was measured using a microplate reader (Agilent). LDH activity of each DRG was calculated as the difference between absorbance at 490 nm after subtracting the background absorbance at 680 nm. As a positive control, 13 female rat DRGs and 15 male rat DRGs were treated for three days with Lysis buffer solution, provided in the kit, diluted 1:5.45 in DRG media. The percentage of cytotoxicity was calculated following Eq 2. Pre-treat levels of LDH activity were subtracted from post-treat LDH activity in each DRG to remove baseline LDH activity then percentage of cytotoxicity compared to positive control lysed DRG LDH activity was calculated. Sex is a biological factor that can influence neurotoxicity. Thus, percentage of cytotoxicity of total 11 to 14 DRG replicates per group by sex from n = 3 male and n = 3 female rats were tested.\n(§3) Cytotoxicity(%)=(PosttreatLDHactivity)−(PretreatLDHactivity)/(MaximumLDHactivityfromlysedDRGs)−(PretreatLDHactivity)×100% (2)"}, "[1]": {"assay": "DRG cytotoxicity assessment using LDH assay", "type": "cell-based, rat", "settings": "female, rat, rat dorsal root ganglion (DRG) explants, 100 nM, female rat DRG explant, single well", "description": "as §1, §2, §3"}, "[2]": {"settings": "systemic administration; cited from earlier work"}, "[3]": {"system": "dissociated DRG neurons from embryonic mice", "parameters": "method as in PMID 31484833", "settings": "40 nM; cited from earlier work"}},
  "note": "Where “and” joins values, the source holds several entries; their conditions need not be identical. Equal entries are not always repeated. Structures can show the parent of a compound that is named as a salt.",
  "data": [
    {"smiles": "CC[C@]1(O)C[C@H]2CN(CCc3c([nH]c4ccccc34)[C@@](C(=O)OC)(c3cc4c(cc3OC)N(C=O)[C@H]3[C@@](O)(C(=O)OC)[C@H](OC(C)=O)[C@]5(CC)C=CCN6CC[C@]43[C@@H]65)C2)C1", "note": "[Vcr, vincristine sulfate]", "values": [
      {"measurement": "AB reduction per cell (%)", "setting": "Human NP cells; 10 nM, donor 1, day 3, single wells (Exp, Rep)", "result": "0.002283% and 0.00154% and 0.001747% and 0.002442% and 0.00231% and 0.002706%"},
      {"measurement": "AB reduction per cell (%)", "setting": "Human NP cells; 10 nM, donor 2, day 3, single wells (Exp, Rep)", "result": "0.001215% and 0.001339% and 0.005412% and 0.01334% and 0.005031% and 0.005908%"},
      {"measurement": "AB reduction per cell (%)", "setting": "Human NP cells; 25 nM, donor 1, day 3, single wells (Exp, Rep)", "result": "0.001389% and 0.003739% and 0.002704% and 0.002205% and 0.001365% and 0.001406%"},
      {"measurement": "AB reduction per cell (%)", "setting": "Human NP cells; 25 nM, donor 2, day 3, single wells (Exp, Rep)", "result": "0.003051% and 0.007629% and 0.005557% and 0.004909% and 0.001181% and 0.0009857%"},
      {"measurement": "AB reduction per cell (%)", "setting": "Human NP cells; 50 nM, donor 1, day 3, single wells (Exp, Rep)", "result": "0.001753% and 0.001156% and 0.00138% and 0.00139% and 0.003609% and 0.003175%"},
      {"measurement": "AB reduction per cell (%)", "setting": "Human NP cells; 50 nM, donor 2, day 3, single wells (Exp, Rep)", "result": "0.0005415% and 0.0008201% and 0.002435% and 0.002975% and 0.005792% and 0.00531%"},
      {"measurement": "AB reduction per cell (%)", "setting": "Human NP cells; 100 nM, donor 1, day 3, single wells (Exp, Rep)", "result": "0.001416% and 0.0009649% and 0.001537% and 0.002073% and 0.00337% and 0.003265%"},
      {"measurement": "AB reduction per cell (%)", "setting": "Human NP cells; 100 nM, donor 2, day 3, single wells (Exp, Rep)", "result": "0.0006846% and 0.0007833% and 0.00204% and 0.002057% and 0.009145% and 0.008838%"},
      {"measurement": "AB reduction per cell (%)", "setting": "Human NP cells; 200 nM, donor 1, day 3, single wells (Exp, Rep)", "result": "0.001363% and 0.0008921% and 0.002395% and 0.003983% and 0.00365% and 0.004535%"},
      {"measurement": "AB reduction per cell (%)", "setting": "Human NP cells; 200 nM, donor 2, day 3, single wells (Exp, Rep)", "result": "0.0005853% and 0.0004556% and 0.002302% and 0.00249% and 0.005313% and 0.004842%"},
      {"measurement": "AB reduction per cell (%)", "setting": "Human NP cells; 500 nM, donor 1, day 3, single wells (Exp, Rep)", "result": "0.001679% and 0.00128% and 0.002381% and 0.004274% and 0.005712% and 0.005618%"},
      {"measurement": "AB reduction per cell (%)", "setting": "Human NP cells; 500 nM, donor 2, day 3, single wells (Exp, Rep)", "result": "0.0008561% and 0.0008471% and 0.004331% and 0.0268% and 0.00643% and 0.009026%"},
      {"measurement": "Cellular metabolic activity compared to PBS control", "setting": "Human NP cells; 10 to 500 nM, donor 1 and 2, day 3", "result": "No significant differences were detected"},
      {"measurement": "Cytotoxicity (%)", "setting": "rat DRG explants; 1 nM, 0.001 µM", "result": "6.189% and 9.7112% and 4.38%"},
      {"measurement": "Percentage of DRG cytotoxicity, Mean (SD)", "setting": "rat DRG explants; 10 nM, day 3, male rat DRGs only, relative to lysed DRGs", "result": "7.02 (4.36) %"},
      {"measurement": "Percentage of cytotoxicity less than lysed DRGs", "setting": "rat DRG explants; 100 nM, day 3", "result": 89.8, "unit": "%"},
      {"measurement": "Cytotoxicity (%)", "setting": "rat DRG explants; 100 nM, 0.1 µM", "result": 11.901, "unit": "%"},
      {"measurement": "Cytotoxicity (%)", "setting": "rat DRG explants; 500 nM, 0.5 µM", "result": "7.521% and 12.2818% and 15.3285%"},
      {"measurement": "Overall cytotoxicity lower compared to lysed DRGs", "setting": "rat DRG explants; all concentrations tested, day 3", "result": "at least 88%"},
      {"measurement": "cytotoxicity at 3 days, 0.1 µM", "setting": "[1]", "result": 15.5, "unit": "%"},
      {"measurement": "Chemotherapy patients developing peripheral neuropathy", "setting": "[2]", "result": 96, "unit": "%"},
      {"measurement": "Time to axon degeneration", "setting": "[3]", "result": "≤ 12", "unit": "h"},
      {"measurement": "Time to complete axon fragmentation", "setting": "[3]", "result": "≤ 36", "unit": "h"}
    ]}
  ]
}
